Assay results as given in ChEMBL document CHEMBL2029229, “Structure-activity relationship of a series of non peptidic RGD integrin antagonists targeting α5β1: part 1” (Bioorg Med Chem Lett, 2012).

System: not listed separately
Assay: Dissociation constant, pKa of the compound
Assay type: physicochemical

Compound	pKa
O=C(N[C@@H](Cc1ccc(OCCc2ccc3c(n2)NCCC3)cc1)C(=O)O)c1c(Cl)cccc1Cl	7.6
O=C(N[C@@H](Cc1ccc(OCCc2ccc3c(n2)NCCO3)cc1)C(=O)O)c1c(Cl)cccc1Cl	6
O=C(N[C@@H](Cc1ccc(OCCc2cccc(NC3CCCC3)n2)cc1)C(=O)O)c1c(Cl)cccc1Cl	6.8
CN1CCNc2nc(CCOc3ccc(C[C@H](NC(=O)c4c(Cl)cccc4Cl)C(=O)O)cc3)ccc21	7.1
O=C(N[C@@H](Cc1ccc(CCCCNc2ccccn2)cc1)C(=O)O)c1c(Cl)cccc1Cl	7.2
CNc1cccc(COCc2ccc(C[C@H](NC(=O)c3c(Cl)cccc3Cl)C(=O)O)cc2)n1	6.4
O=C(NCc1ccc2c(n1)NCCC2)c1ccc(C[C@H](NC(=O)c2c(Cl)cccc2Cl)C(=O)O)cc1	6.8
CNc1cccc(CCCc2ccc(C[C@H](NC(=O)c3c(Cl)cccc3Cl)C(=O)O)cc2)n1	7.6

Second part, the molecule after the results:

pKa	Compound
7	CNc1cccc(CCOc2ccc(C[C@H](NC(=O)c3c(Cl)cccc3Cl)C(=O)O)cc2)n1
6.7	O=C(N[C@@H](Cc1ccc(OCCNc2ccccn2)cc1)C(=O)O)c1c(Cl)cccc1Cl
6.7	O=C(N[C@@H](Cc1ccc(C#CCCNc2ccccn2)cc1)C(=O)O)c1c(Cl)cccc1Cl
4.3	O=C(N[C@@H](Cc1ccc(OCCNc2nc3ccccc3s2)cc1)C(=O)O)c1c(Cl)cccc1Cl
7.1	O=C(N[C@@H](Cc1ccc(OCCCNc2ccccn2)cc1)C(=O)O)c1c(Cl)cccc1Cl
7.2	O=C(N[C@@H](Cc1ccc(OCCNc2nc3ccccc3[nH]2)cc1)C(=O)O)c1c(Cl)cccc1Cl

Molecular target: T1, Integrin alpha-5/beta-1 (Homo sapiens, UniProt P05556+P08648)
Assay: Antagonist activity at integrin alpha5beta1 in human K562 cells assessed as inhibition of cell adhesion in presence of 630 uM human serum albumin
Assay type: functional, cell-based

T1 sequence (P05556 21-798 limits assumed): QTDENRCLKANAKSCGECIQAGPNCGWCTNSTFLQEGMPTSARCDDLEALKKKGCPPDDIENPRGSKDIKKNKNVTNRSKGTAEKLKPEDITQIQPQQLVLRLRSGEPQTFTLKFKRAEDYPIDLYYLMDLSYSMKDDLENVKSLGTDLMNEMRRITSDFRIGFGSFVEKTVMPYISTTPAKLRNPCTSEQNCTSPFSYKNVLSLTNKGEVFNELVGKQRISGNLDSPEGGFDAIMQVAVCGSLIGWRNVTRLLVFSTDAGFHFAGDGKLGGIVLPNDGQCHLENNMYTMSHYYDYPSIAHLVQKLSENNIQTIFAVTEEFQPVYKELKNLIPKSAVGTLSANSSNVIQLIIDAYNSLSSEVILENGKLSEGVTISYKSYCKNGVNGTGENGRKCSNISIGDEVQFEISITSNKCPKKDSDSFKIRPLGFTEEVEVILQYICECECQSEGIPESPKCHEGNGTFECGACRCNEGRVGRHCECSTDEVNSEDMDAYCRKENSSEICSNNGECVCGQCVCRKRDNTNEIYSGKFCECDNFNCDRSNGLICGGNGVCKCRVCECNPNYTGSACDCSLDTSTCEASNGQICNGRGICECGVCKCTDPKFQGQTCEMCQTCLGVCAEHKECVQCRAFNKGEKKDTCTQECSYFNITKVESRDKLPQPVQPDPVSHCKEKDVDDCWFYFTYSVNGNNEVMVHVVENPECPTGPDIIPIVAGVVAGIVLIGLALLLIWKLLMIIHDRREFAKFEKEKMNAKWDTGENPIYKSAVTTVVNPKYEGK
T1 sequence (P08648 42-894 limits assumed): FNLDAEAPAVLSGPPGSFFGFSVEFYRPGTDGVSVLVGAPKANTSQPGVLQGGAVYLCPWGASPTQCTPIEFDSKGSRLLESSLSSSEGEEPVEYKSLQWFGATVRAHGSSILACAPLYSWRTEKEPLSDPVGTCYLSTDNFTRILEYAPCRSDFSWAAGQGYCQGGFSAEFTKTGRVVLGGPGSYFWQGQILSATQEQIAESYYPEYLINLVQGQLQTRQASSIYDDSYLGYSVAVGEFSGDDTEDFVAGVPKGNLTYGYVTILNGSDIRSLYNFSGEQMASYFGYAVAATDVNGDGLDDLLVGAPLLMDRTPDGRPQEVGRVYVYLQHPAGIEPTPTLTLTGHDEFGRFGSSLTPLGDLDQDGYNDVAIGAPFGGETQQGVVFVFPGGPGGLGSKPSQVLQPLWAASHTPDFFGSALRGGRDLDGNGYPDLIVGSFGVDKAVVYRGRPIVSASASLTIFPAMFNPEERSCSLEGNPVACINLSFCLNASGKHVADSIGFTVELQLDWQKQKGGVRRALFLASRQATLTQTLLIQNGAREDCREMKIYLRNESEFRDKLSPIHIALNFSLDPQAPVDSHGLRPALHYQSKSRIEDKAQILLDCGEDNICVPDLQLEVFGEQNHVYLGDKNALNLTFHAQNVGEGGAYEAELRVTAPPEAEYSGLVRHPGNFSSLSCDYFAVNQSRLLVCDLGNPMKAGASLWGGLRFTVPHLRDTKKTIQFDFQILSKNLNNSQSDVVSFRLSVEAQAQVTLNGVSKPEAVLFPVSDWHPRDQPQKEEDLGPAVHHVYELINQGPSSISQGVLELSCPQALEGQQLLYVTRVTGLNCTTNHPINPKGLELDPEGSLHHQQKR
T1 sequence (P08648 895-1049 limits assumed): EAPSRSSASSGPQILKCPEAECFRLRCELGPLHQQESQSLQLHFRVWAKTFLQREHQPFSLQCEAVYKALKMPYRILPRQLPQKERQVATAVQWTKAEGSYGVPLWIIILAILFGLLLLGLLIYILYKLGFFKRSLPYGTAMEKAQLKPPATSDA

IC50	Compound
29 nM	O=C(N[C@@H](Cc1ccc(OCCc2ccc3c(n2)NCCC3)cc1)C(=O)O)c1c(Cl)cccc1Cl
< 56 nM	CN1CCNc2nc(CCOc3ccc(C[C@H](NC(=O)c4c(Cl)cccc4Cl)C(=O)O)cc3)ccc21
450 nM	O=C(N[C@@H](Cc1ccc(CCCc2ccc3c(n2)NCCC3)cc1)C(=O)O)c1c(Cl)cccc1Cl

Molecular target: T1, Integrin alpha-5/beta-1
Assay: Binding affinity to integrin alpha5beta1
Assay type: protein-complex assay

Compound	IC50
O=C(Cc1ccc2c(n1)NCCC2)Nc1ccc(C[C@H](NC(=O)c2c(Cl)cccc2Cl)C(=O)O)cc1	3 nM
O=C(N[C@@H](Cc1ccc(OCCc2ccc3c(n2)NCCC3)cc1)C(=O)O)c1c(Cl)cccc1Cl	< 1 nM
O=C(N[C@@H](Cc1ccc(OCCc2ccc3c(n2)NCCO3)cc1)C(=O)O)c1c(Cl)cccc1Cl	1 nM
O=C(N[C@@H](Cc1ccc(OCCc2cccc(NC3CCCC3)n2)cc1)C(=O)O)c1c(Cl)cccc1Cl	83 nM
CN1CCNc2nc(CCOc3ccc(C[C@H](NC(=O)c4c(Cl)cccc4Cl)C(=O)O)cc3)ccc21	1 nM
O=C(N[C@@H](Cc1ccc(CCCCNc2ccccn2)cc1)C(=O)O)c1c(Cl)cccc1Cl	24 nM
CN1CC(CCCOc2ccc(C[C@H](NC(=O)c3c(Cl)cccc3Cl)C(=O)O)cc2)C1	360 nM
CNc1cccc(COCc2ccc(C[C@H](NC(=O)c3c(Cl)cccc3Cl)C(=O)O)cc2)n1	220 nM
O=C(N[C@@H](Cc1ccc(CCCc2ccc3c(n2)NCCC3)cc1)C(=O)O)c1c(Cl)cccc1Cl	< 1 nM
O=C(NCc1ccc2c(n1)NCCC2)c1ccc(C[C@H](NC(=O)c2c(Cl)cccc2Cl)C(=O)O)cc1	5 nM

Further lines, results first:

IC50	Compound
54 nM	O=C(N[C@@H](Cc1ccc(OCCCCNc2ccccn2)cc1)C(=O)O)c1c(Cl)cccc1Cl
69 nM	O=C(N[C@@H](Cc1ccc(C#CCCNc2ccccn2)cc1)C(=O)O)c1c(Cl)cccc1Cl
150 nM	NC(=O)NCCCOc1ccc(C[C@H](NC(=O)c2c(Cl)cccc2Cl)C(=O)O)cc1
970 nM	O=C(N[C@@H](Cc1ccc(OCCNc2nc3ccccc3s2)cc1)C(=O)O)c1c(Cl)cccc1Cl
8 nM	O=C(N[C@@H](Cc1ccc(OCCNc2nc3ccccc3[nH]2)cc1)C(=O)O)c1c(Cl)cccc1Cl
< 1 nM	Nc1cccc(CCOc2ccc(C[C@H](NC(=O)c3c(Cl)cccc3Cl)C(=O)O)cc2)n1
3 nM	O=C(N[C@@H](Cc1ccc(OCCc2cccc(NCC3CC3)n2)cc1)C(=O)O)c1c(Cl)cccc1Cl
140 nM	CN(C)c1cccc(CCOc2ccc(C[C@H](NC(=O)c3c(Cl)cccc3Cl)C(=O)O)cc2)n1

System: A375M
Assay: Selectivity ratio of IC50 for integrin alphavbeta3alpha5beta1-mediated human A375M cells adhesion to fibronectin in absence of MK-0429 to IC50 for integrin alpha5beta1-mediated human A375M cells adhesion to fibronectin in presence of MK-0429
Assay type: cell-based

Compound	Ratio IC50
O=C(Cc1ccc2c(n1)NCCC2)Nc1ccc(C[C@H](NC(=O)c2c(Cl)cccc2Cl)C(=O)O)cc1	4
O=C(N[C@@H](Cc1ccc(OCCc2ccc3c(n2)NCCC3)cc1)C(=O)O)c1c(Cl)cccc1Cl	4.5
CNc1cccc(CCOc2ccc(C[C@H](NC(=O)c3c(Cl)cccc3Cl)C(=O)O)cc2)n1	2.4
O=C(N[C@@H](Cc1ccc(OCCc2ccc3c(n2)NCCO3)cc1)C(=O)O)c1c(Cl)cccc1Cl	2.1
CN1CCNc2nc(CCOc3ccc(C[C@H](NC(=O)c4c(Cl)cccc4Cl)C(=O)O)cc3)ccc21	1.6
O=C(N[C@@H](Cc1ccc(OCCCNc2ccccn2)cc1)C(=O)O)c1c(Cl)cccc1Cl	4
O=C(NCc1ccc2c(n1)NCCC2)c1ccc(C[C@H](NC(=O)c2c(Cl)cccc2Cl)C(=O)O)cc1	5.9
Cc1cc(C)c(C(=O)N[C@@H](CNC(=O)CO[C@@H]2C[C@@H](CNc3ccccn3)N(C(=O)OCc3ccccc3)C2)C(=O)O)c(C)c1	15

Molecular target: Integrin alpha-V/beta-3 (Homo sapiens, UniProt P05106+P06756)
Assay: Antagonist activity at integrin alphavbeta3 in human A375M cells assessed as inhibition of cell adhesion to fibrinogen in presence of Mg2+
Assay type: functional, cell-based

Integrin alpha-V/beta-3, sequence (P05106 27-788 limits assumed): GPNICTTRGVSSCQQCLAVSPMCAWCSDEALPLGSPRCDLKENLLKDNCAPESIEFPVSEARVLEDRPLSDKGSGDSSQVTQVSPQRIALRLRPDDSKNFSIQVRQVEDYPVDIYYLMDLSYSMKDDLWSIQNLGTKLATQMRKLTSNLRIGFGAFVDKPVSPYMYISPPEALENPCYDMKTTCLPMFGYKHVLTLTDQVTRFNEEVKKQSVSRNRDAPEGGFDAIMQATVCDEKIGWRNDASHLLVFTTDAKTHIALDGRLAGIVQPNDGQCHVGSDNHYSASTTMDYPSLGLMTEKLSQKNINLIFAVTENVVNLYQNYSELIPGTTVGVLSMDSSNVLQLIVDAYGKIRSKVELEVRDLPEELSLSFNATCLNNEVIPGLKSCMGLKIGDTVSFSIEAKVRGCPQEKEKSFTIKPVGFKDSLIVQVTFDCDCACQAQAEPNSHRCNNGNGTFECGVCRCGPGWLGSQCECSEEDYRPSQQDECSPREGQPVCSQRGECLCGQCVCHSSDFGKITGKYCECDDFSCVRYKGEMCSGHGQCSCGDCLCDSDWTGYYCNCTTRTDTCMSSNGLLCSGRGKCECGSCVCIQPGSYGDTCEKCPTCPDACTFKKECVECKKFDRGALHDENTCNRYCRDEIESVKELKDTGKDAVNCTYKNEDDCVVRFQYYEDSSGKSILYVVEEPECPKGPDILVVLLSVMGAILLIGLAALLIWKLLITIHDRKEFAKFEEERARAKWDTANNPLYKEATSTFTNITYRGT
Integrin alpha-V/beta-3, sequence (P06756 31-889 limits assumed): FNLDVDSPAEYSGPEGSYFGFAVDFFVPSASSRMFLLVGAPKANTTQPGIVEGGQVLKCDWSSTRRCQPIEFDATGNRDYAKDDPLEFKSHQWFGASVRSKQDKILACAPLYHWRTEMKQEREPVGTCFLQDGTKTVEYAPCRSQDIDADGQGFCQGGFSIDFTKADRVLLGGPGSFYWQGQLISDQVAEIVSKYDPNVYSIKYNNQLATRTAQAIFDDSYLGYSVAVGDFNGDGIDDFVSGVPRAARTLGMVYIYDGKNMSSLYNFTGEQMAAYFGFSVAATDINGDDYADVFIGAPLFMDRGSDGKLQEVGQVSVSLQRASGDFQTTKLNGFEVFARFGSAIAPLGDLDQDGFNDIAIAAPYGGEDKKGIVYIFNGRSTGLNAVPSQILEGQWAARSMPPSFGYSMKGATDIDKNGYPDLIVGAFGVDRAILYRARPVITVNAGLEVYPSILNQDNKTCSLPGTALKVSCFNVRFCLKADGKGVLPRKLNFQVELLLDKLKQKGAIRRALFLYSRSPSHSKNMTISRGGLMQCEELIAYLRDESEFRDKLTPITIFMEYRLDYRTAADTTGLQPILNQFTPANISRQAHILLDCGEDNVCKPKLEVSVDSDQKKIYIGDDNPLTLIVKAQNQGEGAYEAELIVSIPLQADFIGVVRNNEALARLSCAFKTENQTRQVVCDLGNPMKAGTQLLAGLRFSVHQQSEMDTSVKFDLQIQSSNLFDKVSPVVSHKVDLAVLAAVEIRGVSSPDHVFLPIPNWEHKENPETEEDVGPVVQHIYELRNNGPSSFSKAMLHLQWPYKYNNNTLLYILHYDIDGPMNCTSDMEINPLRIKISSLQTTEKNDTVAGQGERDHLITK
Integrin alpha-V/beta-3, sequence (P06756 891-1048 limits assumed): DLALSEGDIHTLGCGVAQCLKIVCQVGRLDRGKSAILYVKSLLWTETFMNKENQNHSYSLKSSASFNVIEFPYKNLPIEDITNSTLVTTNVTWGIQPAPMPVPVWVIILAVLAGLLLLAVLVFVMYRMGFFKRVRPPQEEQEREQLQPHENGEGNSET

Compound	IC50
O=C(Cc1ccc2c(n1)NCCC2)Nc1ccc(C[C@H](NC(=O)c2c(Cl)cccc2Cl)C(=O)O)cc1	49 nM
O=C(N[C@@H](Cc1ccc(OCCc2ccc3c(n2)NCCC3)cc1)C(=O)O)c1c(Cl)cccc1Cl	1 nM
O=C(N[C@@H](Cc1ccc(OCCc2ccc3c(n2)NCCO3)cc1)C(=O)O)c1c(Cl)cccc1Cl	17 nM
CN1CCNc2nc(CCOc3ccc(C[C@H](NC(=O)c4c(Cl)cccc4Cl)C(=O)O)cc3)ccc21	23 nM
O=C(NCc1ccc2c(n1)NCCC2)c1ccc(C[C@H](NC(=O)c2c(Cl)cccc2Cl)C(=O)O)cc1	350 nM
Cc1cc(C)c(C(=O)N[C@@H](CNC(=O)CO[C@@H]2C[C@@H](CNc3ccccn3)N(C(=O)OCc3ccccc3)C2)C(=O)O)c(C)c1	1200 nM

The remaining lines, values ahead:

IC50	Compound
7 nM	CNc1cccc(CCOc2ccc(C[C@H](NC(=O)c3c(Cl)cccc3Cl)C(=O)O)cc2)n1
84 nM	O=C(N[C@@H](Cc1ccc(OCCCNc2ccccn2)cc1)C(=O)O)c1c(Cl)cccc1Cl

Molecular target: T1, Integrin alpha-5/beta-1
Assay: Antagonist activity at integrin alpha5beta1 in human A375M cells assessed as inhibition of cell adhesion to fibronectin in presence of Mg2+ and MK-0429
Assay type: functional, cell-based

IC50	Compound
210 nM	O=C(Cc1ccc2c(n1)NCCC2)Nc1ccc(C[C@H](NC(=O)c2c(Cl)cccc2Cl)C(=O)O)cc1
130 nM	O=C(N[C@@H](Cc1ccc(OCCc2ccc3c(n2)NCCO3)cc1)C(=O)O)c1c(Cl)cccc1Cl
150 nM	CN1CCNc2nc(CCOc3ccc(C[C@H](NC(=O)c4c(Cl)cccc4Cl)C(=O)O)cc3)ccc21
1400 nM	O=C(NCc1ccc2c(n1)NCCC2)c1ccc(C[C@H](NC(=O)c2c(Cl)cccc2Cl)C(=O)O)cc1
200 nM	Cc1cc(C)c(C(=O)N[C@@H](CNC(=O)CO[C@@H]2C[C@@H](CNc3ccccn3)N(C(=O)OCc3ccccc3)C2)C(=O)O)c(C)c1

Molecular target: Integrin alpha-IIb/beta-3 (Homo sapiens, UniProt P05106+P08514)
Assay: Inhibition of integrin alpha2b beta3
Assay type: protein-complex assay

Integrin alpha-IIb/beta-3, sequence (P05106 27-788 limits assumed): as the sequence (P05106 27-788 limits assumed) above
Integrin alpha-IIb/beta-3, sequence (P08514 32-887 limits assumed): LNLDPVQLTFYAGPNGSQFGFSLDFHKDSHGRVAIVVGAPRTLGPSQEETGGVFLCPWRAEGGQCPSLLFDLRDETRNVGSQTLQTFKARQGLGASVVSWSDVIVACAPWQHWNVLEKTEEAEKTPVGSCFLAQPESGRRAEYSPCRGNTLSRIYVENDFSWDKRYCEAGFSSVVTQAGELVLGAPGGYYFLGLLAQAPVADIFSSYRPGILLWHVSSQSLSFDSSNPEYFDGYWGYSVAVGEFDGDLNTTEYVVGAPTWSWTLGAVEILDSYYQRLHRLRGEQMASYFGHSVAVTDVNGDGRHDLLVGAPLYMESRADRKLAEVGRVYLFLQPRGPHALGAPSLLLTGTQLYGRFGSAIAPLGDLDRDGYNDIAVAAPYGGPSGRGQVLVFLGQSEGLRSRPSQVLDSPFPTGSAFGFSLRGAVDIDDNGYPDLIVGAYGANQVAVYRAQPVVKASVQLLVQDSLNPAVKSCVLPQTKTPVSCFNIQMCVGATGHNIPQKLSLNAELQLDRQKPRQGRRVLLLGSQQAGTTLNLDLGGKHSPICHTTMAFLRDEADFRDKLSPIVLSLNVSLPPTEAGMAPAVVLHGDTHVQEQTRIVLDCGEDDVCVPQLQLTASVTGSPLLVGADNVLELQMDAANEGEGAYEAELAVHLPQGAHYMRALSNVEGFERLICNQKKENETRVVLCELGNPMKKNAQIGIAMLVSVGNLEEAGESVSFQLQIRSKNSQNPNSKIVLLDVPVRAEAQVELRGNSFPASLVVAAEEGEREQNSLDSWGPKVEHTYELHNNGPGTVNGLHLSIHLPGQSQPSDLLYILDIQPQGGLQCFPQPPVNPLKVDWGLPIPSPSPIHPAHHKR
Integrin alpha-IIb/beta-3, sequence (P08514 891-1039 limits assumed): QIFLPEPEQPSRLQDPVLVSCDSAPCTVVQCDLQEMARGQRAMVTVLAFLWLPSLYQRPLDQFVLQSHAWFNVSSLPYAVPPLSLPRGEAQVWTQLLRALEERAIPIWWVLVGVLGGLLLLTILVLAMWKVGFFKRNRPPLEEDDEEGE

IC50	Compound
> 10000 nM	O=C(N[C@@H](Cc1ccc(OCCc2ccc3c(n2)NCCC3)cc1)C(=O)O)c1c(Cl)cccc1Cl
> 10000 nM	CN1CCNc2nc(CCOc3ccc(C[C@H](NC(=O)c4c(Cl)cccc4Cl)C(=O)O)cc3)ccc21
> 10000 nM	O=C(N[C@@H](Cc1ccc(CCCc2ccc3c(n2)NCCC3)cc1)C(=O)O)c1c(Cl)cccc1Cl

System: not listed separately
Assay: Fraction unbound in rat plasma
Assay type: ADME, cell-free

fraction unbound	Compound
0.007	O=C(N[C@@H](Cc1ccc(OCCc2ccc3c(n2)NCCC3)cc1)C(=O)O)c1c(Cl)cccc1Cl
0.015	CN1CCNc2nc(CCOc3ccc(C[C@H](NC(=O)c4c(Cl)cccc4Cl)C(=O)O)cc3)ccc21
0.006	O=C(N[C@@H](Cc1ccc(CCCc2ccc3c(n2)NCCC3)cc1)C(=O)O)c1c(Cl)cccc1Cl

Molecular target: T1, Integrin alpha-5/beta-1
Assay: Antagonist activity at integrin alpha5beta1 in human K562 cells assessed as inhibition of cell adhesion
Assay type: functional, cell-based

Compound	IC50
O=C(Cc1ccc2c(n1)NCCC2)Nc1ccc(C[C@H](NC(=O)c2c(Cl)cccc2Cl)C(=O)O)cc1	84 nM
O=C(N[C@@H](Cc1ccc(OCCc2ccc3c(n2)NCCC3)cc1)C(=O)O)c1c(Cl)cccc1Cl	< 3 nM
O=C(N[C@@H](Cc1ccc(OCCc2ccc3c(n2)NCCO3)cc1)C(=O)O)c1c(Cl)cccc1Cl	10 nM
O=C(N[C@@H](Cc1ccc(OCCc2cccc(NC3CCCC3)n2)cc1)C(=O)O)c1c(Cl)cccc1Cl	320 nM
CN1CCNc2nc(CCOc3ccc(C[C@H](NC(=O)c4c(Cl)cccc4Cl)C(=O)O)cc3)ccc21	< 8 nM
O=C(N[C@@H](Cc1ccc(CCCCNc2ccccn2)cc1)C(=O)O)c1c(Cl)cccc1Cl	1100 nM
CN1CC(CCCOc2ccc(C[C@H](NC(=O)c3c(Cl)cccc3Cl)C(=O)O)cc2)C1	58000 nM
CNc1cccc(COCc2ccc(C[C@H](NC(=O)c3c(Cl)cccc3Cl)C(=O)O)cc2)n1	1400 nM
O=C(N[C@@H](Cc1ccc(CCCc2ccc3c(n2)NCCC3)cc1)C(=O)O)c1c(Cl)cccc1Cl	< 8 nM
O=C(NCc1ccc2c(n1)NCCC2)c1ccc(C[C@H](NC(=O)c2c(Cl)cccc2Cl)C(=O)O)cc1	120 nM
Cc1cc(C)c(C(=O)N[C@@H](CNC(=O)CO[C@@H]2C[C@@H](CNc3ccccn3)N(C(=O)OCc3ccccc3)C2)C(=O)O)c(C)c1	586 nM

Next, values leading:

IC50	Compound
710 nM	O=C(N[C@@H](Cc1ccc(OCCCCNc2ccccn2)cc1)C(=O)O)c1c(Cl)cccc1Cl
2100 nM	O=C(N[C@@H](Cc1ccc(C#CCCNc2ccccn2)cc1)C(=O)O)c1c(Cl)cccc1Cl
10000 nM	NC(=O)NCCCOc1ccc(C[C@H](NC(=O)c2c(Cl)cccc2Cl)C(=O)O)cc1
2400 nM	O=C(N[C@@H](Cc1ccc(OCCNc2nc3ccccc3s2)cc1)C(=O)O)c1c(Cl)cccc1Cl
160 nM	O=C(N[C@@H](Cc1ccc(OCCNc2nc3ccccc3[nH]2)cc1)C(=O)O)c1c(Cl)cccc1Cl
9 nM	Nc1cccc(CCOc2ccc(C[C@H](NC(=O)c3c(Cl)cccc3Cl)C(=O)O)cc2)n1
< 41 nM	O=C(N[C@@H](Cc1ccc(OCCc2cccc(NCC3CC3)n2)cc1)C(=O)O)c1c(Cl)cccc1Cl
2700 nM	CN(C)c1cccc(CCOc2ccc(C[C@H](NC(=O)c3c(Cl)cccc3Cl)C(=O)O)cc2)n1

Molecular target: Fibronectin receptor (Integrin alpha-5/beta-1 and alpha-V/beta-3) (Homo sapiens, UniProt P05106+P05556+P06756+P08648)
Assay: Antagonist activity at integrin alphavbeta3alpha5beta1 in human A375M cells assessed as inhibition of cell adhesion to fibronectin in presence of Mg2+
Assay type: functional, cell-based

IC50	Compound
860 nM	O=C(Cc1ccc2c(n1)NCCC2)Nc1ccc(C[C@H](NC(=O)c2c(Cl)cccc2Cl)C(=O)O)cc1
9 nM	O=C(N[C@@H](Cc1ccc(OCCc2ccc3c(n2)NCCC3)cc1)C(=O)O)c1c(Cl)cccc1Cl
270 nM	O=C(N[C@@H](Cc1ccc(OCCc2ccc3c(n2)NCCO3)cc1)C(=O)O)c1c(Cl)cccc1Cl
250 nM	CN1CCNc2nc(CCOc3ccc(C[C@H](NC(=O)c4c(Cl)cccc4Cl)C(=O)O)cc3)ccc21
8400 nM	O=C(NCc1ccc2c(n1)NCCC2)c1ccc(C[C@H](NC(=O)c2c(Cl)cccc2Cl)C(=O)O)cc1
3200 nM	Cc1cc(C)c(C(=O)N[C@@H](CNC(=O)CO[C@@H]2C[C@@H](CNc3ccccn3)N(C(=O)OCc3ccccc3)C2)C(=O)O)c(C)c1
